By melting point is commonly meant the temperature, or range, at which the solid turns liquid.

Structures can show the parent of a compound that is named as a salt.

In patent publication US6825202B2, “Arylsulfonyl derivatives with 5-HT6 receptor affinity” (Syntex (U.S.A.) LLC, priority 2001, dated 2004) one finds melting point data, which are given here for seven compounds.

Turning to `COc1ccc(S(=O)(=O)c2ccc3ccccc3c2)cc1N1CCNCC1`, the melting point fell in the range of 279.9 to 283.3 °C.

The compound `COc1ccc(S(=O)(=O)c2ccc(Cl)cc2)cc1N1CCNCC1` gave a melting point of 263.4 to 272.1 °C.

The compound `COc1ccc(S(=O)(=O)c2cccc(Cl)c2)cc1N1CCNCC1` came in with a melting point of 265 to 266.3 °C.

With `COc1ccc(S(=O)(=O)c2cc(Cl)cc(Cl)c2)cc1N1CCNCC1`, the melting point lay in the range of 245.9 to 246.2 °C.

`COc1ccc(S(=O)(=O)c2cccc(F)c2)cc1N1CCNCC1` yielded a melting point of 246 to 250.1 °C.

`COc1ccc(S(=O)(=O)c2ccc(Cl)cc2)cc1C1CCNCC1` (as salt: hydrochloride) [compound 301, 4-[5-(4-chloro-benzenesulfonyl)2methoxy-phenyl] piperidine]: the melting point is 235.5 to 236 °C.

With `COc1ccc(S(=O)(=O)c2ccc(F)c3ccccc23)cc1N1CCNCC1` (as salt: hydrochloride) [compound 401, 1-[5-(4-fluoro-naphthalene-1-sulfonyl)2-methoxyphenyl]piperazine], the melting point is 155 to 159 °C.
